In ChEMBL document CHEMBL4359892, “Discovery of novel indolylarylsulfones as potent HIV-1 NNRTIs via structure-guided scaffold morphing” (Eur J Med Chem, 2019):
pEC50: −log10 of the molar value.

How the values were obtained:
[1] = test system: Human immunodeficiency virus 1; assay: Antiviral activity against HIV-1 3B infected in human MT4 cells assessed as reduction in virus-induced cytopathic effect incubated for 5 days by MTT assay; type: functional, organism-based; conditions: Human immunodeficiency virus 1, 3B, MT4, 120 h
[2] = test system: Human immunodeficiency virus 1; assay: Antiviral activity against drug resistant HIV-1 RES056 harboring reverse transcriptase K103N/Y181C double mutant infected in human MT4 cells assessed as reduction in virus-induced cytopathic effect incubated for 5 days by MTT assay; type: functional, organism-based; conditions: Human immunodeficiency virus 1, RES056, MT4, 120 h
[3] = Cytotoxicity against human MT4 cells assessed as reduction in cell viability incubated for 5 days by MTT assay; type: cell-based
[4] = Selectivity index, ratio of CC50 for human MT4 cells to EC50 for antiviral activity against HIV IIIB; type: toxicity; conditions: read-out: Ratio CC50/EC50
[5] = Selectivity index, ratio of CC50 for human MT4 cells to EC50 for antiviral activity against HIV RES056; type: toxicity; conditions: read-out: Ratio CC50/EC50
[6] = test system: Human immunodeficiency virus 1; assay: Antiviral activity against drug resistant HIV-1 harboring reverse transcriptase E138K mutant infected in human MT4 cells assessed as reduction in virus-induced cytopathic effect incubated for 5 days by MTT assay; type: functional, organism-based; conditions: Human immunodeficiency virus 1, MT4, 120 h
[7] = test system: Human immunodeficiency virus 1; assay: Antiviral activity against drug resistant HIV-1 harboring reverse transcriptase L100I mutant infected in human MT4 cells assessed as reduction in virus-induced cytopathic effect incubated for 5 days by MTT assay; type: functional, organism-based; conditions: Human immunodeficiency virus 1, MT4, 120 h
[8] = test system: Human immunodeficiency virus 1; assay: Antiviral activity against drug resistant HIV-1 harboring reverse transcriptase K103N mutant infected in human MT4 cells assessed as reduction in virus-induced cytopathic effect incubated for 5 days by MTT assay; type: functional, organism-based; conditions: Human immunodeficiency virus 1, MT4, 120 h
[9] = test system: Human immunodeficiency virus 1; assay: Antiviral activity against drug resistant HIV-1 harboring reverse transcriptase Y181C mutant infected in human MT4 cells assessed as reduction in virus-induced cytopathic effect incubated for 5 days by MTT assay; type: functional, organism-based; conditions: Human immunodeficiency virus 1, MT4, 120 h
[10] = test system: Human immunodeficiency virus 1; assay: Antiviral activity against drug resistant HIV-1 harboring reverse transcriptase Y188L mutant infected in human MT4 cells assessed as reduction in virus-induced cytopathic effect incubated for 5 days by MTT assay; type: functional, organism-based; conditions: Human immunodeficiency virus 1, MT4, 120 h
[11] = test system: Human immunodeficiency virus 1; assay: Antiviral activity against drug resistant HIV-1 harboring reverse transcriptase F227L/V106A double mutant infected in human MT4 cells assessed as reduction in virus-induced cytopathic effect incubated for 5 days by MTT assay; type: functional, organism-based; conditions: Human immunodeficiency virus 1, MT4, 120 h

SMILES	pEC50 [1]	pEC50 [2]	CC50 at 120 h [3]	selectivity ratio [4]	selectivity ratio [5]	pEC50 [6]	pEC50 [7]	pEC50 [8]	pEC50 [9]	pEC50 [10]	pEC50 [11]
Cc1cc(C)cc(S(=O)(=O)c2c(C(=O)NS(=O)(=O)c3ccc(F)cc3)[nH]c3ccc(Cl)cc23)c1	5.53	< 3.60	> 253 µM	> 86	< 1	5.42	5.00	4.67	4.34	< 3.60	4.41
Cc1cc(C)cc(S(=O)(=O)c2c(C(=O)NC3CN(CC(N)=O)C3)[nH]c3ccc(Cl)cc23)c1	7.89	< 4.59	25.5 µM	1940	< 1						
Cc1cc(C)cc(S(=O)(=O)c2c(C(=O)NC3CN(Cc4ccccc4F)C3)[nH]c3ccc(Cl)cc23)c1	7.52	4.19	> 238 µM	> 7810	> 4						
CCS(=O)(=O)NC(=O)c1[nH]c2ccc(Cl)cc2c1S(=O)(=O)c1cc(C)cc(C)c1	5.53	< 3.55	> 284 µM	> 96		6.23	5.36	4.99	4.89	< 3.55	4.95
Cc1cc(C)cc(S(=O)(=O)c2c(C(=O)NCCP(=O)(O)O)[nH]c3ccc(Cl)cc23)c1	6.68	< 3.62	> 237 µM	> 1100							
Cc1cc(C)cc(S(=O)(=O)c2c(C(=O)NC3CN(S(C)(=O)=O)C3)[nH]c3ccc(Cl)cc23)c1	7.77	< 3.60	> 252 µM	> 15200							
Cc1cc(C)cc(S(=O)(=O)c2c(C(=O)NC3CNC3)[nH]c3ccc(Cl)cc23)c1	7.13	≤ 4.43	37.3 µM	495	< 1						
Cc1cc(C)cc(S(=O)(=O)c2c(C(=O)N[C@@H]3CCN(Cc4ccccc4F)C3)[nH]c3ccc(Cl)cc23)c1	6.92	< 3.63	> 232 µM	> 1860							
Cc1cc(C)cc(S(=O)(=O)c2c(C(=O)NC3CN(Cc4cccnc4)C3)[nH]c3ccc(Cl)cc23)c1	7.82	< 4.44	36 µM	2480	< 1						
Cc1cc(C)cc(S(=O)(=O)c2c(C(=O)N[C@H]3CCN(Cc4n[nH]c(=O)n4C)C3)[nH]c3ccc(Cl)cc23)c1	8.14	≤ 4.67	21.4 µM	2980	< 1						
CCOP(=O)(CCNC(=O)c1[nH]c2ccc(Cl)cc2c1S(=O)(=O)c1cc(C)cc(C)c1)OCC	5.88	< 3.88	131 µM	100	< 1	5.92	5.17	5.46	5.17	< 3.88	5.14
Cc1cc(C)cc(S(=O)(=O)c2c(C(=O)NS(=O)(=O)C3CC3)[nH]c3ccc(Cl)cc23)c1	5.59	< 3.83	147 µM	57	< 1	6.48	5.09	4.92	4.73	< 3.83	4.93
Cc1cc(C)cc(S(=O)(=O)c2c(C(=O)N[C@H]3CCN(Cc4ccccc4C#N)C3)[nH]c3ccc(Cl)cc23)c1	6.77	3.76	> 229 µM	> 1350	> 1						
Cc1cc(C)cc(S(=O)(=O)c2c(C(=O)NC3CN(Cc4ccccc4C#N)C3)[nH]c3ccc(Cl)cc23)c1	7.89	4.17	> 235 µM	> 18700	> 4						
Cc1cc(C)cc(S(=O)(=O)c2c(C(=O)NS(=O)(=O)C(F)(F)F)[nH]c3ccc(Cl)cc23)c1	6.44	< 3.85	141 µM	393	< 1	6.04	5.85	5.61	5.26	< 3.85	5.45
Cc1cc(C)cc(S(=O)(=O)c2c(C(=O)N[C@@H]3CCN(Cc4cccnc4)C3)[nH]c3ccc(Cl)cc23)c1	7.24	≤ 4.44	36.5 µM	627	< 1						

SMILES	pEC50 [1]	pEC50 [2]	CC50 at 120 h [3]	selectivity ratio [4]	selectivity ratio [5]	pEC50 [6]	pEC50 [7]	pEC50 [8]	pEC50 [9]	pEC50 [10]	pEC50 [11]
Cc1cc(C)cc(S(=O)(=O)c2c(C(=O)N[C@H]3CCN(Cc4cccnc4)C3)[nH]c3ccc(Cl)cc23)c1	7.96	≤ 4.64	22.8 µM	2010	< 1						
CCCS(=O)(=O)NC(=O)c1[nH]c2ccc(Cl)cc2c1S(=O)(=O)c1cc(C)cc(C)c1	5.62	< 3.84	146 µM	61	< 1	6.37	4.96	4.76	4.53	< 3.84	4.69
Cc1cc(C)cc(S(=O)(=O)c2c(C(=O)N[C@@H]3CCNC3)[nH]c3ccc(Cl)cc23)c1	7.31	≤ 5.01	37.3 µM		< 1						
Cc1cc(C)cc(S(=O)(=O)c2c(C(=O)NS(=O)(=O)c3ccc(F)cc3F)[nH]c3ccc(Cl)cc23)c1	5.49	< 3.92	121 µM	37	< 1	5.39	5.05	4.82	< 3.92	< 3.92	4.52
Cc1cc(C)cc(S(=O)(=O)c2c(C(=O)NS(C)(=O)=O)[nH]c3ccc(Cl)cc23)c1	8.02	≤ 5.03	40.1 µM	4180	≤ 4						
Cc1cc(C)cc(S(=O)(=O)c2c(C(=O)N[C@H]3CCN(Cc4ccccc4F)C3)[nH]c3ccc(Cl)cc23)c1	7.08	≤ 3.67	215 µM	2580	< 1						
Cc1cc(C)cc(S(=O)(=O)c2c(C(=O)NC3CN(Cc4n[nH]c(=O)n4C)C3)[nH]c3ccc(Cl)cc23)c1	6.96	< 4.60	25.2 µM	224	> 224	6.55	6.98	6.29	5.77	5.67	5.93
Cc1cc(C)cc(S(=O)(=O)c2c(C(=O)NCCn3ccc(=O)[nH]c3=O)[nH]c3ccc(Cl)cc23)c1	5.35	< 3.58	> 265 µM	> 60							
Cc1cc(C)cc(S(=O)(=O)c2c(C(=O)N[C@@H]3CCN(Cc4ccccc4C#N)C3)[nH]c3ccc(Cl)cc23)c1	7.28	< 3.73	≥ 186 µM	2580							
Cc1cc(C)cc(S(=O)(=O)c2c(C(=O)N[C@H]3CCNC3)[nH]c3ccc(Cl)cc23)c1	7.68	≤ 5.00	10 µM	473	< 1						
Cc1cc(C)cc(S(=O)(=O)c2c(C(=O)NS(=O)(=O)c3ccccc3)[nH]c3ccc(Cl)cc23)c1	5.76	< 3.78	167 µM	96	< 1	5.70	5.66	5.49	5.27	< 3.78	5.13
Cc1cc(C)cc(S(=O)(=O)c2c(C(=O)N[C@@H]3CCN(Cc4n[nH]c(=O)n4C)C3)[nH]c3ccc(Cl)cc23)c1	7.46	≤ 4.65	22.4 µM	634	< 1						
O=C1Nc2ccc(Cl)cc2[C@@](C#CC2CC2)(C(F)(F)F)O1 [EFAVIRENZ]	8.07	6.59	> 6.35 µM						8.08	6.57	6.60
Nc1ccn([C@@H]2CS[C@H](CO)O2)c(=O)n1 [LAMIVUDINE]	5.41	5.26	> 87.2 µM		> 16	5.45	5.50	5.43	5.34	5.35	5.72
Cc1ccnc2c1NC(=O)c1cccnc1N2C1CC1 [NEVIRAPINE]	6.42	< 4.82	> 15 µM			6.74	5.91	5.14	< 4.82	< 4.82	< 4.82
